In patent US5157052A, “Method for inhibiting IgE production” (priority 1990, dated 1992):

Experiments:
κ Light Chain = experiment: Splenocyte cell surface density/distribution (FACS): κ Light Chain; assay type: in vivo, mouse (Balb/c female)
Protocol: (§1) One group of 4 unstimulated Balb/c female mice is injected with PBS (Group A). Another (Group B) is injected with 20 μg (±) methyl 11α,16-dihydroxy-16-methyl-9-oxoprosta-5Z,13E-dien-1-oate as in Example 13. […] A 3 cm incision is made with a scalpel above the left hip, and the spleen is cut free from adjoining tissue and placed in a 100 mn plastic culture dish containing 10 ml PBS. The splenic cells are then made into a suspension, by rubbing the spleens between the rough, frosted ends of microscope slides repeatedly until the only remaining particulate matter is connective tissue. Cells are transferred to a 15 ml conical polystyrene tube and centrifuged in a centrifuge at 1200 rpm for 5 minutes. The supernatant is discarded by aspiration and the cell pellet is resuspended in 10 ml PBS, then centrifuged at 1200 rpm for 5 minutes. The supernatant is aspirated and the cell pellet is resuspended in 15 mM Tris, 140 mM Ammonium Chloride, to lyse red blood cells. After incubating at room temperature for 10 minutes the cell suspension is centrifuged at 1200 rpm for 10 minutes. The supernatant is discarded and the cell pellet is resuspended in 10 ml FACS Buffer (PBS containing 0.1% BSA and 0.1% Sodium Azide). The cell suspension is filtered through sterile glass wool plugged in the top of a pasteur pipet. Cells in the flow through are counted using a hemacytometer, then the cell suspension is centrifuged at 1200 rpm for 5 minutes. The supernatant is discarded and the cell pellet is resuspended in a volume of FACS Buffer that will yield 4×10^7 cells/ml. 10 μl (4×10^5 cells) is added to each well of a 96-well V-bottom plate. 25 μl of diluted monoclonal antibody directed against splenocyte cell surface proteins is added to each well: Major Histocompatability Complex (MHC) Class II (M5114, ATCC, Rockville Md.), MHC Class I (M1/42, ATCC), Anti-IgD (JA12.5, ATCC, Rockville, Md.), Thymocyte (Thy)-1 (JIJ, ATCC), B220 (14.8, ATCC), Kappa light chain (187, ATCC), IL-2 Receptor (7D4, ATCC), Lyt-1 (7.313, ATCC) and CD23 (biotinylated B3B4) and incubated on ice for 30 minutes. 100 μl 10% BSA 0.1% sodium azide is added to each well, then the plates are centrifuged at 1200 rpm for 10 minutes. The liquid is removed by aspiration and the cell pellets are resuspended in 100 μl FACS Buffer, and centrifuged at 1200 rpm for 5 minutes. […] Samples are transferred to individual tubes and 10,000 cells are analyzed. Using the Lysis software (Becton Dickinson, Mountain View, Calif.) the mean channel log fluorescence and percent positive cells are determined for the entire cell population. […]

MHC Class I = experiment: Splenocyte cell surface density/distribution (FACS): MHC Class I; assay type: in vivo, mouse (Balb/c female)
Protocol: as §1

## CCCCC(C)(O)C/C=C/[C@H]1[C@H](O)CC(=O)[C@@H]1C/C=C\CCCC(=O)OC (mixture of isomers) [(±) methyl 11α,16-dihydroxy-16-methyl-9-oxoprosta-5Z,13E-dien-1-oate]
κ Light Chain; anti-IgD stimulated mice, 20 μg days 3 and 4, day 7 (PBS 50)
  Percentage Positive Cells: 58 ± 14.6%
κ Light Chain; anti-IgD stimulated mice, 20 μg days 3 and 4, day 7 (PBS 118)
  Mean Channel Log Fluorescence: 119 ± 7
κ Light Chain; unstimulated mice, 20 μg (PBS 52.1)
  Percentage Positive Cells: 53.9 ± 2.1%
κ Light Chain; unstimulated mice, 20 μg (PBS 135)
  Mean Channel Log Fluorescence: 131 ± 4
MHC Class I; anti-IgD stimulated mice, 20 μg days 3 and 4, day 7 (PBS 48.5)
  Percentage Positive Cells: 59.4 ± 5.4%
MHC Class I; anti-IgD stimulated mice, 20 μg days 3 and 4, day 7 (PBS 113)
  Mean Channel Log Fluorescence: 121 ± 15
MHC Class I; unstimulated mice, 20 μg (PBS 57.8)
  Percentage Positive Cells: 79 ± 16%
MHC Class I; unstimulated mice, 20 μg (PBS 112)
  Mean Channel Log Fluorescence: 113 ± 2
